Data from PubChem BioAssay AID1745844 (Carcinogenic Potency Database (CPDB), 2022).
Values joined by “and” are separate entries in the source; they are usually repeats but may differ in a detail not shown here. Identical values can stand only once. Active and inactive are the calls of the source. How the calls were made is not given here.

Test system: rodent lifetime carcinogenesis bioassay, tumor incidence TD50
Test: chronic cancer bioassays in animals – CPDB, compiled studies (AID 1745844)

With `CC1(C)[C@@H](O[C@H]2O[C@H](C(=O)O)[C@@H](O)[C@H](O)[C@H]2O[C@@H]2O[C@H](C(=O)O)[C@@H](O)[C@H](O)[C@H]2O)CC[C@]2(C)[C@H]3C(=O)C=C4[C@@H]5C[C@@](C)(C(=O)O)CC[C@]5(C)CC[C@@]4(C)[C@]3(C)CC[C@@H]12` the carcinogen call (mouse, strain B6C3F1, females, in drinking water, site: any site (literature study), lesion: several types, types named in the paper, dosed 96 weeks, study length 110 weeks) was “negative (inactive)”, the carcinogen call (mouse, strain B6C3F1, females, in drinking water, site: liver, lesion: hemangioma, dosed 96 weeks, study length 110 weeks) was “negative (inactive)” and the TD50 (mouse, strain B6C3F1, females, in drinking water, site: liver, lesion: hepatocellular adenoma, dosed 96 weeks, study length 110 weeks) was 28900 mg/kg/day (inactive). For the same compound, the TD50 (mouse, strain B6C3F1, females, in drinking water, site: liver, lesion: hepatocellular carcinoma, dosed 96 weeks, study length 110 weeks) was 29000 mg/kg/day (inactive), the carcinogen call (mouse, strain B6C3F1, females, in drinking water, site: lung, lesion: adenocarcinoma, dosed 96 weeks, study length 110 weeks) was “negative (inactive)” and the TD50 (mouse, strain B6C3F1, females, in drinking water, site: lung, lesion: adenoma, dosed 96 weeks, study length 110 weeks) was 14400 mg/kg/day (inactive). For the same compound, the TD50 (mouse, strain B6C3F1, males, in drinking water, site: any site (literature study), lesion: several types, types named in the paper, dosed 96 weeks, study length 110 weeks) was 3170 mg/kg/day (inactive), the carcinogen call (mouse, strain B6C3F1, males, in drinking water, site: liver, lesion: hemangioma, dosed 96 weeks, study length 110 weeks) was “negative (inactive)” and the carcinogen call (mouse, strain B6C3F1, males, in drinking water, site: liver, lesion: hepatocellular adenoma, dosed 96 weeks, study length 110 weeks) was “negative (inactive)”. For the same compound, the carcinogen call (mouse, strain B6C3F1, males, in drinking water, site: liver, lesion: hepatocellular carcinoma, dosed 96 weeks, study length 110 weeks) was “negative (inactive)”, the carcinogen call (mouse, strain B6C3F1, males, in drinking water, site: lung, lesion: adenocarcinoma, dosed 96 weeks, study length 110 weeks) was “negative (inactive)” and the carcinogen call (mouse, strain B6C3F1, males, in drinking water, site: lung, lesion: adenoma, dosed 96 weeks, study length 110 weeks) was “negative (inactive)”.

In the case of `COc1cc(OC)c2c3c(c(=O)oc2c1)C(=O)CC3`, the carcinogen call (rat, strain Fischer, males, by gavage, site: liver, lesion: one or several types, types not named, dosed 52 weeks, study length 87 weeks) is reported as “negative (inactive)”.

For `CC(CO)OC(C)CO` (stereo not given) (tested in a mixture with another compound), the carcinogen call (mouse, strain B6C3F1, females, in drinking water, site: any site (literature study), lesion: several types, types named in the paper, dosed 104 weeks, study length 104 weeks) was “negative (inactive)”, the TD50 (mouse, strain B6C3F1, females, in drinking water, site: lung, lesion: alveolar/bronchiolar adenoma + alveolar/bronchiolar carcinoma, dosed 104 weeks, study length 104 weeks) was 31800 mg/kg/day and the TD50 (mouse, strain B6C3F1, males, in drinking water, site: any site (literature study), lesion: several types, types named in the paper, dosed 104 weeks, study length 104 weeks) was 24500 mg/kg/day (inactive). The TD50 (mouse, strain B6C3F1, males, in drinking water, site: lung, lesion: alveolar/bronchiolar adenoma + alveolar/bronchiolar carcinoma, dosed 104 weeks, study length 104 weeks) was 18100 mg/kg/day, the carcinogen call (rat, strain Fischer 344, females, in drinking water, site: any site (literature study), lesion: several types, types named in the paper, dosed 104 weeks, study length 104 weeks) was “negative (inactive)” and the TD50 (rat, strain Fischer 344, males, in drinking water, site: any site (literature study), lesion: several types, types named in the paper, dosed 104 weeks, study length 102 weeks) was 274 mg/kg/day (inactive). For the same compound, the TD50 (rat, strain Fischer 344, males, in drinking water, site: liver, lesion: hepatocellular adenoma + hepatoblastoma + hepatocellular carcinoma, dosed 104 weeks, study length 102 weeks) was 68200 mg/kg/day.

`O=NN1CN2CN(C1)CN(N=O)C2` was tested, and the carcinogen call (rat, strain CB, males, i.p., site: liver, lesion: hepatoma, dosed 26 weeks, study length 100 weeks) was “negative (inactive)”.

With `OCc1ccco1` the carcinogen call (mouse, strain B6C3F1, females, inhaled, site: any site (literature study), lesion: several types, types named in the paper, dosed 104 weeks, study length 104 weeks) was “negative (inactive)”, the TD50 (mouse, strain B6C3F1, females, inhaled, site: lung, lesion: alveolar/bronchiolar adenoma + alveolar/bronchiolar carcinoma, dosed 104 weeks, study length 104 weeks) was 41.8 mg/kg/day and the TD50 (mouse, strain B6C3F1, males, inhaled, site: kidney, lesion: tubule adenoma + tubule carcinoma, dosed 104 weeks, study length 104 weeks) was 263 mg/kg/day and 291 mg/kg/day. For the same compound, the TD50 (mouse, strain B6C3F1, males, inhaled, site: kidney, lesion: tubule adenoma, dosed 104 weeks, study length 104 weeks) was 538 mg/kg/day and 492 mg/kg/day, the TD50 (mouse, strain B6C3F1, males, inhaled, site: kidney, lesion: tubule carcinoma, dosed 104 weeks, study length 104 weeks) was 538 mg/kg/day and 744 mg/kg/day and the TD50 (rat, strain Fischer 344, females, inhaled, site: all sites, lesion: mononuclear-cell leukemia, dosed 105 weeks, study length 105 weeks) was 10.1 mg/kg/day. The TD50 (rat, strain Fischer 344, females, inhaled, site: any site (literature study), lesion: several types, types named in the paper, dosed 105 weeks, study length 105 weeks) was 7.57 mg/kg/day, the TD50 (rat, strain Fischer 344, females, inhaled, site: clitoral gland, lesion: adenoma + adenoma, bilateral + carcinoma + carcinoma, bilateral, dosed 105 weeks, study length 105 weeks) was 27.8 mg/kg/day and the TD50 (rat, strain Fischer 344, females, inhaled, site: clitoral gland, lesion: adenoma + adenoma, bilateral, dosed 105 weeks, study length 105 weeks) was 35.7 mg/kg/day. The TD50 (rat, strain Fischer 344, females, inhaled, site: kidney, lesion: tubule adenoma + tubule carcinoma, dosed 105 weeks, study length 105 weeks) was 110 mg/kg/day and 161 mg/kg/day, the TD50 (rat, strain Fischer 344, females, inhaled, site: kidney, lesion: tubule adenoma, dosed 105 weeks, study length 105 weeks) was 113 mg/kg/day and 108 mg/kg/day and the carcinogen call (rat, strain Fischer 344, females, inhaled, site: nasal cavity, respiratory epithelium, lateral wall, lesion: adenoma, dosed 105 weeks, study length 105 weeks) was “e”. It also gave a TD50 (rat, strain Fischer 344, females, inhaled, site: nasal cavity, respiratory epithelium, lesion: adenoma, dosed 105 weeks, study length 105 weeks) of 161 mg/kg/day, a TD50 (rat, strain Fischer 344, males, inhaled, site: Zymbal's gland, lesion: adenoma + carcinoma, dosed 102 weeks, study length 105 weeks) of 17.4 mg/kg/day and a TD50 (rat, strain Fischer 344, males, inhaled, site: any site (literature study), lesion: several types, types named in the paper, dosed 102 weeks, study length 105 weeks) of 1.46 mg/kg/day. For the same compound, the TD50 (rat, strain Fischer 344, males, inhaled, site: nasal cavity, respiratory epithelium, lateral wall + nasal cavity, respiratory epithelium, lesion: adenoma + carcinoma + squamous-cell carcinoma, dosed 102 weeks, study length 105 weeks) was 9.6 mg/kg/day and the TD50 (rat, strain Fischer 344, males, inhaled, site: nasal cavity, respiratory epithelium, lesion: squamous-cell carcinoma, dosed 102 weeks, study length 105 weeks) was 46.4 mg/kg/day.

In the case of `NNC(N)=O`, the TD50 (mouse, strain Swiss albino, females, in drinking water, site: blood vessels, lesion: angioma, dosed 118 weeks, study length 118 weeks) is reported as 975 mg/kg/day, the TD50 (mouse, strain Swiss albino, females, in drinking water, site: blood vessels, lesion: angiosarcoma, dosed 118 weeks, study length 118 weeks) is reported as 798 mg/kg/day and the TD50 (mouse, strain Swiss albino, females, in drinking water, site: blood vessels, lesion: several types, types named in the paper, dosed 118 weeks, study length 118 weeks) is reported as 395 mg/kg/day. It also gave a TD50 (mouse, strain Swiss albino, females, in drinking water, site: liver, lesion: several types, types named in the paper, dosed 118 weeks, study length 118 weeks) of 798 mg/kg/day, a TD50 (mouse, strain Swiss albino, females, in drinking water, site: lung, lesion: adenoma, dosed 118 weeks, study length 118 weeks) of 333 mg/kg/day and a TD50 (mouse, strain Swiss albino, females, in drinking water, site: lung, lesion: several types, types named in the paper, dosed 118 weeks, study length 118 weeks) of 223 mg/kg/day. For the same compound, the TD50 (mouse, strain Swiss albino, males, in drinking water, site: liver, lesion: hepatoma, dosed 118 weeks, study length 118 weeks) was 1420 mg/kg/day (inactive), the TD50 (mouse, strain Swiss albino, males, in drinking water, site: liver, lesion: several types, types named in the paper, dosed 118 weeks, study length 118 weeks) was 933 mg/kg/day and the TD50 (mouse, strain Swiss albino, males, in drinking water, site: lung, lesion: adenoma, dosed 118 weeks, study length 118 weeks) was 745 mg/kg/day. It also gave a TD50 (mouse, strain Swiss albino, males, in drinking water, site: lung, lesion: several types, types named in the paper, dosed 118 weeks, study length 118 weeks) of 833 mg/kg/day.

Compound `Cc1c(N(C)CS(=O)(=O)O)c(=O)n(-c2ccccc2)n1C` has a TD50 (mouse, strain B6C3F1, females, in drinking water, site: liver, lesion: hepatocellular carcinoma, dosed 75 weeks, study length 86 weeks) of 7120 mg/kg/day, a TD50 (mouse, strain B6C3F1, females, in drinking water, site: liver, lesion: several types, types named in the paper, dosed 75 weeks, study length 86 weeks) of 742 mg/kg/day and a TD50 (mouse, strain B6C3F1, males, in drinking water, site: liver, lesion: several types, types named in the paper, dosed 77 weeks, study length 86 weeks) of 547 mg/kg/day. For the same compound, the TD50 (rat, strain F344/DuCrj, males, in drinking water, site: liver, lesion: neoplastic nodule, dosed 72 weeks, study length 83 weeks) was 400 mg/kg/day, the TD50 (rat, strain Wistar, females, in feed, site: liver, lesion: adenoma, dosed 104 weeks, study length 130 weeks) was 33100 mg/kg/day (inactive) and the TD50 (rat, strain Wistar, females, in feed, site: liver, lesion: angiosarcoma, dosed 104 weeks, study length 130 weeks) was 41400 mg/kg/day (inactive). The TD50 (rat, strain Wistar, females, in feed, site: liver, lesion: liver-cell carcinoma, dosed 104 weeks, study length 130 weeks) was 8330 mg/kg/day (inactive), the TD50 (rat, strain Wistar, females, in feed, site: mammary gland, lesion: adenoma, dosed 104 weeks, study length 130 weeks) was 328 mg/kg/day (inactive) and the TD50 (rat, strain Wistar, males, in feed, site: liver, lesion: adenoma, dosed 104 weeks, study length 130 weeks) was 3340 mg/kg/day (inactive). For the same compound, the carcinogen call (rat, strain Wistar, males, in feed, site: liver, lesion: anaplastic carcinoma, dosed 104 weeks, study length 130 weeks) was “negative (inactive)”.

For `CNCc1ccc(CSCCNC(=NCC(O)c2ccc(O)cc2)NS(C)(=O)=O)o1` (stereo not given), the carcinogen call (rat, strain Jcl:SD, females, by gavage, site: liver, lesion: one or several types, types not named, dosed 52 weeks, study length 52 weeks) was “negative (inactive)”, the carcinogen call (rat, strain Jcl:SD, females, by gavage, site: liver, lesion: one or several types, types not named, dosed 52 weeks, study length 56 weeks) was “negative (inactive)” and the carcinogen call (rat, strain Jcl:SD, males, by gavage, site: liver, lesion: one or several types, types not named, dosed 52 weeks, study length 52 weeks) was “negative (inactive)”. For the same compound, the carcinogen call (rat, strain Jcl:SD, males, by gavage, site: liver, lesion: one or several types, types not named, dosed 52 weeks, study length 56 weeks) was “negative (inactive)”.

In the case of `COc1ccc(OC)c(/C=C/c2ccc(N)cc2)c1`, the TD50 (mouse, strain CD-1 HaM/ICR, females, in feed, site: any site (literature study), lesion: several types, types named in the paper, dosed 77 weeks, study length 90 weeks) is reported as 118 mg/kg/day (inactive), the carcinogen call (mouse, strain CD-1 HaM/ICR, females, in feed, site: liver, lesion: several types, types named in the paper, dosed 77 weeks, study length 90 weeks) is reported as “negative (inactive)” and the TD50 (mouse, strain CD-1 HaM/ICR, females, in feed, site: lung, lesion: several types, types named in the paper, dosed 77 weeks, study length 90 weeks) is reported as 152 mg/kg/day (inactive). The TD50 (mouse, strain CD-1 HaM/ICR, males, in feed, site: any site (literature study), lesion: several types, types named in the paper, dosed 77 weeks, study length 90 weeks) was 126 mg/kg/day, the TD50 (mouse, strain CD-1 HaM/ICR, males, in feed, site: liver, lesion: hepatoma, dosed 77 weeks, study length 90 weeks) was 376 mg/kg/day and the TD50 (mouse, strain CD-1 HaM/ICR, males, in feed, site: liver, lesion: several types, types named in the paper, dosed 77 weeks, study length 90 weeks) was 329 mg/kg/day. For the same compound, the TD50 (mouse, strain CD-1 HaM/ICR, males, in feed, site: lung, lesion: several types, types named in the paper, dosed 77 weeks, study length 90 weeks) was 95.9 mg/kg/day and 115 mg/kg/day, the TD50 (rat, strain Charles River CD (Sprague-Dawley), males, in feed, site: any site (literature study), lesion: several types, types named in the paper, dosed 47 weeks, study length 51 weeks) was 0.269 mg/kg/day and the TD50 (rat, strain Charles River CD (Sprague-Dawley), males, in feed, site: ear, lesion: several types, types named in the paper, dosed 47 weeks, study length 51 weeks) was 1.45 mg/kg/day and 1.54 mg/kg/day. It also gave a TD50 (rat, strain Charles River CD (Sprague-Dawley), males, in feed, site: liver, lesion: several types, types named in the paper, dosed 47 weeks, study length 51 weeks) of 2.61 mg/kg/day, a TD50 (rat, strain Charles River CD (Sprague-Dawley), males, in feed, site: skin, lesion: several types, types named in the paper, dosed 47 weeks, study length 51 weeks) of 1.48 mg/kg/day and a TD50 (rat, strain Charles River CD (Sprague-Dawley), males, in feed, site: small intestine, lesion: several types, types named in the paper, dosed 47 weeks, study length 51 weeks) of 0.866 mg/kg/day. It also gave a TD50 (rat, strain Charles River CD (Sprague-Dawley), males, in feed, site: stomach, lesion: several types, types named in the paper, dosed 47 weeks, study length 51 weeks) of 0.721 mg/kg/day.
